Test results published in patent US10968457B2, “Drug-inducible promoter and method of inducting gene expression using the same” (TOYOTA JIDOSHA KABUSHIKI KAISHA, priority 2015, dated 2021).

How the values were obtained:
sugarcane variety Q165 = test: RNAseq expression analysis of leaves before and after probenazole treatment; assay type: in vivo; conditions: 8% Oryzemate granules, 20 g/4 liters of soil, about 60 days after planting, selected gene
Source text: In Example 1, at the outset, a sugarcane variety Q165 was subjected to drug treatment with probenazole (8% Oryzemate granules, Meiji Seika Pharma Co., Ltd., 20 g/4 liters of soil) approximately 60 days after it had been planted. The leaves that had expanded from the top were sampled before and after the treatment, and total RNA was extracted using the RNeasy Plant Mini Kit (QIAGEN).
Subsequently, the obtained total RNA was subjected to RNAseq expression analysis (Illumina HiSeq Sequencing, both-ends analysis), so as to obtain read data set. With the use of the assembler (Velvet version 1.2.08), the read data were reassembled into contig sequence information. The contig sequence information resulting from such reassembly was compared with each RNA sequence, and mapping data were obtained using a mapping program (Bowtie version 1.0.0). The resulting data were designated as the original data for RNAseq analysis.
On the basis of the EST sequence, two types of gene expression regulatory DNAs located in the 5′ upstream region of the selected gene were obtained by the Straight Walk method developed by BEX Co., Ltd. Such gene expression regulatory DNAs are drug-inducible promoters whose transcription activity is activated in the presence of a drug, such as probenazole. […]

[1] = tested on: drug-inducible promoters, tp1 and tp2; test: Real-time PCR of RNA levels in recombinants carrying tp1 or tp2 expression vectors, with and without probenazole treatment; assay type: in vivo, sugarcane variety Q165; conditions: Recombinants 1 to 8; Oryzemate granules (8% probenazole), 20 g/4 liters of soil; leaves sampled 0, 7 and 14 days after treatment; FIG. 7
Protocol: In Example 2, transcription promoting activity of the two types of drug-inducible promoters, tp1 and tp2, isolated in Example 1 was examined in the presence and in the absence of probenazole.
With the use of the tp1-carrying expression vector and the tp2-carrying expression vector constructed in the manner described above, Recombinants 1 to 8 were prepared. Recombinants 1 to 7 were prepared with the use of the tp1-carrying expression vector, and Recombinant 8 was prepared with the use of the tp2-carrying expression vector.
Recombinants 1 to 8 prepared in the manner described above were treated with Oryzemate granules (8% probenazole, Meiji Seika Pharma Co., Ltd., 20 g/4 liters of soil), and leaves were sampled therefrom 0 days after drug treatment (i.e., immediately before the treatment), 7 days after drug treatment, and 14 days after drug treatment. The RNA levels of the recombinants were quantified using the AB17500 real-time PCR apparatus (Applied BioSystems) in accordance with the SYBR Green method. A comparative example shown in FIG. 7 concerns a recombinant prepared with the use of ecc0002-Hd3a-pIG121-Hm. The control example shown in FIG. 7 concerns the Q165 wild-type sugarcane variety.

SMILES: C=CCOC1=NS(=O)(=O)c2ccccc21 [probenazole]
- increase in expression levels of EST sequence, drug treatment group versus non-treatment group (sugarcane variety Q165): ≥ 100 fold
- degree of gene expression induction [1]: ≥ 3 times
